# Laboratory results: the supplement of paper PMC10307832
# Columns and labels:
# Test in all cases: relative viability (nuclei count vs DMSO), 5 days (fraction); higher = more cells survive
# [1] = tested on: LOU-NH91
# Procedure, shortened: (§1)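 Values are medians from duplicate plates. Each reflects relative viability, defined as the nuclei count of treated wells over that of vehicle wells. Lung cancer cell lines in 1536-well plates were pin-tool dosed one day after seeding with one drug alone or with a fixed anchor-drug dose plus five library-drug doses (not always all listed) in √10 steps, then fixed, stained and imaged at 4× after 5 days.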
# [2] = tested on: NCI-H1437
# Procedure, shortened: as §1
# [3] = tested on: NCI-H2085
# Procedure, shortened: as §1
# [4] = tested on: NCI-H647
# Procedure, shortened: as §1
# [5] = tested on: NCI-H1648
# Procedure, shortened: as §1
# [6] = tested on: HCC-827
# Procedure, shortened: as §1
# [7] = tested on: LU99A
# Procedure, shortened: as §1
# [8] = tested on: EPLC-272H
# Procedure, shortened: as §1
# [9] = tested on: SW 900
# Procedure, shortened: as §1
# [10] = tested on: NCI-H1734
# Procedure, shortened: as §1
# [11] = tested on: EMC-BAC-2
# Procedure, shortened: as §1
# [12] = tested on: LK-2
# Procedure, shortened: as §1
# [13] = tested on: NCI-H1792
# Procedure, shortened: as §1
# [14] = tested on: NCI-H358
# Procedure, shortened: as §1
# [15] = tested on: NCI-H522
# Procedure, shortened: as §1
# [16] = tested on: EKVX
# Procedure, shortened: as §1
# [17] = tested on: NCI-H650
# Procedure, shortened: as §1
# [18] = tested on: BEN
# Procedure, shortened: as §1
# [19] = tested on: HCC-78
# Procedure, shortened: as §1
smiles,measurement,setting,value
C=C1C(=O)O[C@@H](CCCCCCCC)[C@@H]1C(=O)O [C-75] + NC(=O)Nc1cc(-c2cccc(F)c2)sc1C(=O)N[C@H]1CCCNC1 [AZD7762] (partner 0.2 µM),relative viability,[1]; first compound 0.08 µM,0.739
same,relative viability,[1]; first compound 0.253 µM,0.704
same,relative viability,[1]; first compound 0.8 µM,0.684
same,relative viability,[1]; first compound 8 µM,0.818
same,relative viability,[2]; first compound 0.08 µM,1.11
same,relative viability,[2]; first compound 0.253 µM,1.09
same,relative viability,[2]; first compound 0.8 µM,1.09
same,relative viability,[2]; first compound 2.53 µM,1.09
same,relative viability,[2]; first compound 8 µM,1.15
same,relative viability,[3]; first compound 0.08 µM,0.95
same,relative viability,[3]; first compound 0.253 µM,1.09
same,relative viability,[3]; first compound 0.8 µM,0.919
same,relative viability,[3]; first compound 2.53 µM,0.943
same,relative viability,[3]; first compound 8 µM,1
same,relative viability,[4]; first compound 0.08 µM,0.412
same,relative viability,[4]; first compound 0.253 µM,0.405
same,relative viability,[4]; first compound 0.8 µM,0.329
same,relative viability,[4]; first compound 2.53 µM,0.444
same,relative viability,[4]; first compound 8 µM,0.373
same,relative viability,[5]; first compound 0.08 µM,0.75
same,relative viability,[5]; first compound 0.253 µM,1.2
same,relative viability,[5]; first compound 0.8 µM,0.712
same,relative viability,[5]; first compound 8 µM,0.622
same,relative viability,[6]; first compound 0.253 µM,0.245
same,relative viability,[6]; first compound 0.8 µM,0.201
same,relative viability,[6]; first compound 8 µM,0.355
same,relative viability,[7]; first compound 0.08 µM,0.36
same,relative viability,[7]; first compound 0.253 µM,0.529
same,relative viability,[7]; first compound 0.8 µM,0.33
same,relative viability,[7]; first compound 2.53 µM,0.284
same,relative viability,[7]; first compound 8 µM,0.401
same,relative viability,[8]; first compound 0.08 µM,0.23
same,relative viability,[8]; first compound 0.253 µM,0.257
same,relative viability,[8]; first compound 0.8 µM,0.188
same,relative viability,[8]; first compound 2.53 µM,0.196
same,relative viability,[8]; first compound 8 µM,0.266
same,relative viability,[9]; first compound 0.08 µM,0.663
same,relative viability,[9]; first compound 0.253 µM,0.69
same,relative viability,[9]; first compound 0.8 µM,0.623
same,relative viability,[9]; first compound 2.53 µM,0.576
same,relative viability,[9]; first compound 8 µM,0.611
same,relative viability,[10]; first compound 0.08 µM,0.562
same,relative viability,[10]; first compound 0.253 µM,0.587
same,relative viability,[10]; first compound 0.8 µM,0.488
same,relative viability,[10]; first compound 2.53 µM,0.278
same,relative viability,[10]; first compound 8 µM,0.664
same,relative viability,[11]; first compound 0.08 µM,1.1
same,relative viability,[11]; first compound 0.253 µM,1.04
same,relative viability,[11]; first compound 0.8 µM,1.06
same,relative viability,[11]; first compound 2.53 µM,0.887
same,relative viability,[11]; first compound 8 µM,1.07
same,relative viability,[12]; first compound 0.08 µM,0.355
same,relative viability,[12]; first compound 0.253 µM,0.699
same,relative viability,[12]; first compound 0.8 µM,0.299
same,relative viability,[12]; first compound 2.53 µM,0.289
same,relative viability,[12]; first compound 8 µM,0.255
same,relative viability,[13]; first compound 0.08 µM,0.787
same,relative viability,[13]; first compound 0.253 µM,0.623
same,relative viability,[13]; first compound 0.8 µM,0.748
same,relative viability,[13]; first compound 2.53 µM,0.443
same,relative viability,[13]; first compound 8 µM,0.554
same,relative viability,[14]; first compound 0.08 µM,0.55
same,relative viability,[14]; first compound 0.253 µM,0.531
same,relative viability,[14]; first compound 0.8 µM,0.454
same,relative viability,[14]; first compound 2.53 µM,0.456
same,relative viability,[14]; first compound 8 µM,0.477
same,relative viability,[15]; first compound 0.08 µM,0.851
same,relative viability,[15]; first compound 0.253 µM,0.717
same,relative viability,[15]; first compound 0.8 µM,0.846
same,relative viability,[15]; first compound 2.53 µM,0.855
same,relative viability,[15]; first compound 8 µM,0.727
same,relative viability,[16]; first compound 0.08 µM,0.683
same,relative viability,[16]; first compound 0.253 µM,0.765
same,relative viability,[16]; first compound 0.8 µM,0.498
same,relative viability,[16]; first compound 8 µM,0.51
same,relative viability,[17]; first compound 0.08 µM,0.935
same,relative viability,[17]; first compound 0.253 µM,0.796
same,relative viability,[17]; first compound 0.8 µM,1.01
same,relative viability,[17]; first compound 2.53 µM,0.81
same,relative viability,[17]; first compound 8 µM,1.02
same,relative viability,[18]; first compound 0.08 µM,0.676
same,relative viability,[18]; first compound 0.253 µM,0.729
same,relative viability,[18]; first compound 0.8 µM,0.589
same,relative viability,[18]; first compound 2.53 µM,0.633
same,relative viability,[18]; first compound 8 µM,0.627
same,relative viability,[19]; first compound 0.08 µM,0.584
same,relative viability,[19]; first compound 0.253 µM,0.409
same,relative viability,[19]; first compound 0.8 µM,0.579
same,relative viability,[19]; first compound 8 µM,0.72
